{"source": "patent US11920125B2", "about": "“Methods and agricultural compositions for preventing or controlling plant diseases” (Tenfold Technologies, LLC, priority 2017, dated 2024)", "key": {"[1]": {"test_system": "R. solani", "assay": "Pot assay, microbial drench treatments on Ozark soybean seedlings in pots infested with R. solani", "type": "in vivo", "conditions": "chemical control at 0.06 g/lb of soybean seeds", "procedure": "In pot assays, WB or its dilutions were applied as a seed coating or as a a simulated in-furrow application in pots containing soil inoculated with the pathogen. Measurements of the percent of emergence, plant growth stage, and disease rating were used to assess biocontrol efficacy. Whole broth (WB) or WB dilutions were applied either as a simulated in-furrow treatment or a seed treatment applied to soybean seed. For simulated in-furrow application, 1 ml of biocontrol treatment or negative and positive controls was pipetted over the seed placed in 0.5 cm deep depressions made in peat-lite mix potting medium inoculated with the pathogen and prior to covering with the potting medium. Seed treatments were applied by coating soybean seed with the biocontrol and control treatments prior to planting into an inoculated potting medium. The negative control was reverse osmosis-purified (RO) water applied to seed in inoculated pots. The positive controls were Satori® (azoxystrobin) and Subtilex® (Bacillus subtilis strain MBI 600) applied at the labelled rates. In addition, a mock-inoculated treatment without pathogen inoculation was included in each test. Inoculation was done by thoroughly mixing 1 L of a slurry, made by blending two fully Rhizoctonia solani-colonized potato dextrose cultures in 200 ml RO water, with 4 L peat-lite mix (e.g., Sunshine LC1 potting mix) using a cement mixer. Experimental units were five seeds per pot and the treatments were arranged in a completely random design with four replicates. The tests were conducted on light carts illuminated with LED lamps (16 hour day/8 hour night) for 7-10 days at 26-28° C. The pots were irrigated as needed with RO water. Measurements of the percent emergence, plant growth stage (Munger, et al., 2008), and disease severity rating (0, no disease, to 5, dead plant) were collected from each plant at the end of each test, and the means of the experimental units were analyzed using JMP version 11 (SAS, Cary, NC).\nIn a separate pot assay, treatments were applied directly as a drench."}, "[2]": {"test_system": "Rhizoctonia", "assay": "Rhizoctonia control field trial, soybean seed treatment, Fisher, Indiana", "conditions": "isolates (GB6-M) 20 μl WB/Seed; Fludioxonil 0.02 mg/Seed", "experimental": "For all treatments, the target concentration is 20 μl water/seed, which corresponds to 60 ml/460 g seeds. Sixty (60) ml liquid was added to every 460 g soybean seeds for a total of six times. Each time, 10 ml of liquid was added to the 460 g seeds and mixed for 15 seconds. Coated seeds were dried for 5-10 minutes under ventilation between the additions. Final coated seeds were dried overnight in a biocontainment hood."}, "[3]": {"test_system": "Pythium irregulare", "assay": "Pot assay, bacterial isolates with or without fungicide Satori for control of Pythium irregulare on soybean", "type": "in vivo", "procedure": "In order to test the performance of bacterial isolates, with or without the presence of the fungicide Satori® (active ingredient is azoxystrobin), samples were applied as simulated in-furrow by pipetting in 1 ml over each seed after the seeds were placed in a 1 cm deep depression. The combination was prepared by combining each bacterial whole broth (MS1479, MS2379, MS2414, or MS2820) (which was grown in GB6-M8) with an equal volume (1:1) of Satori®. The agar slurry inoculation method was used after blending two agar cultures of P. irregulare in 200 ml RO water and then mixed with 4 L of peat-lite mix in a cement mixer. Five soybean seeds (genotype WS2620) were sown in each pot with 1 ml treatment over each seed (in-furrow simulation). Then the pots were incubated at 16° C. for 1 week and then 23° C. for another week before evaluation. The disease severity scale: 1=80-100%, 2=60-79%, 3=40-59%, 4=20-39%, 5=1-19%, and 6=0% damaged roots. (Table 16)."}}}
{"smiles": "N#Cc1c[nH]cc1-c1cccc2c1OC(F)(F)O2", "note": "[Fludioxonil]", "values": [{"measurement": "Disease Rating", "setting": "[1]; 0 = no disease to 5 = plant dead, 7 days", "result": "3.0^F"}, {"measurement": "# Emerged Plants", "setting": "[1]; 7 days after sowing, of four seeds per pot", "result": "2.0^B"}, {"measurement": "Plant Growth Stage", "setting": "[1]; scale 1-4, 7 days", "result": "2.2^B"}, {"measurement": "Stand (No of plants per acre) at 11 DAP", "setting": "[2]", "result": 2614, "unit": "plants per acre"}, {"measurement": "Stand (No of plants per acre) at 16 DAP", "setting": "[2]", "result": 20038, "unit": "plants per acre"}, {"measurement": "Stand (No of plants per acre) at 49 DAP", "setting": "[2]", "result": 16939, "unit": "plants per acre"}, {"measurement": "Total # Diseased per plot (187.5 ft^2 per plot area)", "setting": "[2]", "result": 7.3}, {"measurement": "Vigor Rating (1-5: 1 = worst, 5 = best)", "setting": "[2]", "result": 1.8}]}
{"smiles": "COCC(=O)N(c1c(C)cccc1C)C(C)C(=O)OC", "note": "(centres unmarked) [Metalaxyl]", "values": [{"measurement": "Plant development", "setting": "[3]; five soybean seeds per pot, 1 ml treatment over each seed", "result": 12.55}, {"measurement": "Plant emergence", "setting": "[3]; five soybean seeds per pot, 1 ml treatment over each seed, 16° C. 1 week then 23° C. 1 week", "result": 5}, {"measurement": "Disease severity", "setting": "[3]; scale 1=80-100%, 2=60-79%, 3=40-59%, 4=20-39%, 5=1-19%, 6=0% damaged roots (higher = healthier)", "result": 4.35}]}
